Assay results as given in patent US11981658B2, “Substituted aminopyridine compounds as EGFR inhibitors” (YUHAN CORPORATION, priority 2021, dated 2024).
Where two headings read alike, the source gives them in different places.

Tests used:
EGFR Del19/T790M/C797S = EGFR Del19/T790M/C797S (Homo sapiens, UniProt P00533, C797S/DEL746-750/T790M); assay: Biochemical EGFR kinase inhibition assay (Lance Ultra TR-FRET), triple mutant del19/T790M/C797S
Summary of the method: (§1)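 Step 1: compound in kinase buffer, 0.003–10 μM. Step 2: kinase reaction 1 h at room temperature. Step 4: TR-FRET read at 615/665 nm; IC50 calculated.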

EGFR L858R/T790M/C797S = EGFR L858R/T790M/C797S (Homo sapiens, UniProt P00533, C797S/L858R/T790M); assay: Biochemical EGFR kinase inhibition assay (Lance Ultra TR-FRET), triple mutant L858R/T790M/C797S
Summary of the method: as §1

EGFR Del19/C797S = EGFR Del19/C797S (Homo sapiens, UniProt P00533, C797S/DEL746-750); assay: Biochemical EGFR kinase inhibition assay (Lance Ultra TR-FRET), double mutant del19/C797S
Summary of the method: as §1

EGFR L858R/C797S = EGFR L858R/C797S (Homo sapiens, UniProt P00533, C797S/L858R); assay: Biochemical EGFR kinase inhibition assay (Lance Ultra TR-FRET), double mutant L858R/C797S
Summary of the method: as §1

EGFR wildtype (WT) = EGFR wildtype (WT) (Homo sapiens, UniProt P00533); assay: Biochemical EGFR kinase inhibition assay (Lance Ultra TR-FRET), wildtype
Summary of the method: as §1

[1] = IC50 Del19/T790M/C797S (nM), 100 μM ATP
[2] = IC50 L858R/T790M/C797S (nM), 100 μM ATP
[3] = IC50 Del19/C797S (nM), 100 μM ATP
[4] = IC50 L858R/C797S (nM), 100 μM ATP
[5] = Km ATP, read-out: IC50 Del19/T790M/C797S (nM), Km ATP
[6] = Km ATP, read-out: IC50 L858R/T790M/C797S (nM), Km ATP
[7] = Km ATP, read-out: IC50 Del19/C797S (nM), Km ATP
[8] = Km ATP, read-out: IC50 L858R/C797S (nM), Km ATP
[9] = Km ATP, read-out: IC50 WT (nM), Km ATP
[10] = ATP at Km, read-out: IC50 Del19/T790M/C797S (nM), Km ATP
[11] = ATP at Km, read-out: IC50 L858R/T790M/C797S (nM), Km ATP
[12] = ATP at Km, read-out: IC50 Del19/C797S (nM), Km ATP
[13] = ATP at Km, read-out: IC50 L858R/C797S (nM), Km ATP
[14] = ATP at Km, read-out: IC50 WT (nM), Km ATP

Chain of EGFR Del19/T790M/C797S (P00533 with tags, fused parts or gaps DEL746-750/T790M/C797S): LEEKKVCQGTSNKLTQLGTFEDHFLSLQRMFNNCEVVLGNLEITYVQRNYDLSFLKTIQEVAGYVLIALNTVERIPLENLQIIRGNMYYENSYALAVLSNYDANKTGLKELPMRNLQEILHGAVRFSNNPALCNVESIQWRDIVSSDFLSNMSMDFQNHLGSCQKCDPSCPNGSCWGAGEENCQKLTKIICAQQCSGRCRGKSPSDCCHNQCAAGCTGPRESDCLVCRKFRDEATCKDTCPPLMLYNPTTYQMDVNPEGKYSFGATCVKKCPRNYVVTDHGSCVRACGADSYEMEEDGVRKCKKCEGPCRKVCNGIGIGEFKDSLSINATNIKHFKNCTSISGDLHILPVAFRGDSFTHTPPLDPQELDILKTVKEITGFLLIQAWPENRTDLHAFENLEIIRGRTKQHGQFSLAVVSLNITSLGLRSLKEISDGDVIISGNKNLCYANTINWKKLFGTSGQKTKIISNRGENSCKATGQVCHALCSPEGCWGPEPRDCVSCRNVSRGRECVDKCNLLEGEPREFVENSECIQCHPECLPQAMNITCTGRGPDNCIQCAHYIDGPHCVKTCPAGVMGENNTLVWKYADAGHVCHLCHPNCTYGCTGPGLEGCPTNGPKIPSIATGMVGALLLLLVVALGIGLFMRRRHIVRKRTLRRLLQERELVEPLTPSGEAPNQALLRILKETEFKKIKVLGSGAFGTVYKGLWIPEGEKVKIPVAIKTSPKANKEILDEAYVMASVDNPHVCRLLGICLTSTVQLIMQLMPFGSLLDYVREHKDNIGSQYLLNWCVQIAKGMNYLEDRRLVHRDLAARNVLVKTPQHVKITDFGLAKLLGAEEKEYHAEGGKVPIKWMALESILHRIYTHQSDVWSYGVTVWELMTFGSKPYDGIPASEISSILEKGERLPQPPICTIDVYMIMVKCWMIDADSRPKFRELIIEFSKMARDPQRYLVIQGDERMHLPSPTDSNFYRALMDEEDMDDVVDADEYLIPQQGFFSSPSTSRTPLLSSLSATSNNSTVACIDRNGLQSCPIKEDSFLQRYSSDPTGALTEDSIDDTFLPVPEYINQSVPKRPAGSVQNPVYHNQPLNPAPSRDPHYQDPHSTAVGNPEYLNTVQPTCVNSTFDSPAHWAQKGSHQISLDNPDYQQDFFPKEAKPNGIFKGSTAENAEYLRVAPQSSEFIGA
Chain of EGFR wildtype (WT) (P00533 25-1210): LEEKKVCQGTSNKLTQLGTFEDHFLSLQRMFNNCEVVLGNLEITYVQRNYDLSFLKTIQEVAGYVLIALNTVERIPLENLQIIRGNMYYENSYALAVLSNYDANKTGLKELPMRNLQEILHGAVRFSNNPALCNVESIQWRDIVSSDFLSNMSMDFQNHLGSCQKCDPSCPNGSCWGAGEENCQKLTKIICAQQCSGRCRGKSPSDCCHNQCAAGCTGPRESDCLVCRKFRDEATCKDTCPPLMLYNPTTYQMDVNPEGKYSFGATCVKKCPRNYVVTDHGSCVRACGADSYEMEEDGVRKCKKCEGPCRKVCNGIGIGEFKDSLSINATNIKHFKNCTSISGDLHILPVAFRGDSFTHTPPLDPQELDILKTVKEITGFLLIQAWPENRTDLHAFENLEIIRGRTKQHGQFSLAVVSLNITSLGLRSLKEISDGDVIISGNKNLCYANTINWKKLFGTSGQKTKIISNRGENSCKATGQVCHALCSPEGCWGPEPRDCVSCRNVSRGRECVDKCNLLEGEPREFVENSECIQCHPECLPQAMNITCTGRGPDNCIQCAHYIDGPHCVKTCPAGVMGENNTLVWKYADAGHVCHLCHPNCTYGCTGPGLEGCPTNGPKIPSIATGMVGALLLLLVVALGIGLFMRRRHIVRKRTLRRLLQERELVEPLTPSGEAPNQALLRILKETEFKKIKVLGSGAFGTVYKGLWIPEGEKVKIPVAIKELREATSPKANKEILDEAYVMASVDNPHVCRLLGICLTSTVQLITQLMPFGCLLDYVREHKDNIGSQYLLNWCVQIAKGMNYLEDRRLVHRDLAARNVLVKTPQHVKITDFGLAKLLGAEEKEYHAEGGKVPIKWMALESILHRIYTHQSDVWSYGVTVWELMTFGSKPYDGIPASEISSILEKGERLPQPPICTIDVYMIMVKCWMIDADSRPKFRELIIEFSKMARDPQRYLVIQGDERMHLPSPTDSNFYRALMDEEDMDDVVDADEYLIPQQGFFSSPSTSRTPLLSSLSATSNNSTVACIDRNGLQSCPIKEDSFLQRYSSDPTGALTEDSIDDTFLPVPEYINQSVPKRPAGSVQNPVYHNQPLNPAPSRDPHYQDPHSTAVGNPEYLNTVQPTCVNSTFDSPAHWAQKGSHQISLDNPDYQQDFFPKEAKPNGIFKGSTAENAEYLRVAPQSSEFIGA
Chain of EGFR L858R/C797S (P00533 25-1210 C797S/L858R): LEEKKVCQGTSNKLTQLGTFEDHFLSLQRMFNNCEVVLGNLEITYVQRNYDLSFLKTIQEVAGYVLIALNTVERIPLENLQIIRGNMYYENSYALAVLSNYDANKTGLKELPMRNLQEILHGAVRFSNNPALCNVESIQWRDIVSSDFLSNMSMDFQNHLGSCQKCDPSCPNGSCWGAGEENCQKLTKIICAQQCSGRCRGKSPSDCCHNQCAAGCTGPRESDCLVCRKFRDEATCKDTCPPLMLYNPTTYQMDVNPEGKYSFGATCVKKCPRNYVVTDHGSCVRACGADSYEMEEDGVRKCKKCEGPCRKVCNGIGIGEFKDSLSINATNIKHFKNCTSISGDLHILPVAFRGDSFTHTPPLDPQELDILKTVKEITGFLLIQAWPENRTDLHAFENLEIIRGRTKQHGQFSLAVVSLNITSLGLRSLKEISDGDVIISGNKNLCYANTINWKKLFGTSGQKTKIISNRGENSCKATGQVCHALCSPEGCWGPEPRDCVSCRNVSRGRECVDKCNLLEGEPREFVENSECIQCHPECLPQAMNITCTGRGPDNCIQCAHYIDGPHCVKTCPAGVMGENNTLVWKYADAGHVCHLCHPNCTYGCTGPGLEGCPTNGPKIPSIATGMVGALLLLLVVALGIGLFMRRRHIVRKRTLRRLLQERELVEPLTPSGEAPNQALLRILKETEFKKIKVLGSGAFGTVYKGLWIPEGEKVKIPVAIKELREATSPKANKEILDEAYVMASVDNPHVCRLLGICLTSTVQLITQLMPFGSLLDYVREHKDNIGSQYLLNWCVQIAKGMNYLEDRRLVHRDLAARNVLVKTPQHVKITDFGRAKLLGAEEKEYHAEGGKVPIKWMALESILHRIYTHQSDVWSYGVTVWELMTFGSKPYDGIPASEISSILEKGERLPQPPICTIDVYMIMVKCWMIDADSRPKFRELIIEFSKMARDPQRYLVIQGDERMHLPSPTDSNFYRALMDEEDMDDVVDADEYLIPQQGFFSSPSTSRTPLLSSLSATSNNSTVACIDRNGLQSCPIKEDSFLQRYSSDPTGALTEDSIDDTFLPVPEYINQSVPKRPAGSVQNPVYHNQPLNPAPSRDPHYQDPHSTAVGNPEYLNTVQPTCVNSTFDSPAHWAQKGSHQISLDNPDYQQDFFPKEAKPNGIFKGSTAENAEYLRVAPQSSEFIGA
Chain of EGFR L858R/T790M/C797S (P00533 25-1210 T790M/C797S/L858R): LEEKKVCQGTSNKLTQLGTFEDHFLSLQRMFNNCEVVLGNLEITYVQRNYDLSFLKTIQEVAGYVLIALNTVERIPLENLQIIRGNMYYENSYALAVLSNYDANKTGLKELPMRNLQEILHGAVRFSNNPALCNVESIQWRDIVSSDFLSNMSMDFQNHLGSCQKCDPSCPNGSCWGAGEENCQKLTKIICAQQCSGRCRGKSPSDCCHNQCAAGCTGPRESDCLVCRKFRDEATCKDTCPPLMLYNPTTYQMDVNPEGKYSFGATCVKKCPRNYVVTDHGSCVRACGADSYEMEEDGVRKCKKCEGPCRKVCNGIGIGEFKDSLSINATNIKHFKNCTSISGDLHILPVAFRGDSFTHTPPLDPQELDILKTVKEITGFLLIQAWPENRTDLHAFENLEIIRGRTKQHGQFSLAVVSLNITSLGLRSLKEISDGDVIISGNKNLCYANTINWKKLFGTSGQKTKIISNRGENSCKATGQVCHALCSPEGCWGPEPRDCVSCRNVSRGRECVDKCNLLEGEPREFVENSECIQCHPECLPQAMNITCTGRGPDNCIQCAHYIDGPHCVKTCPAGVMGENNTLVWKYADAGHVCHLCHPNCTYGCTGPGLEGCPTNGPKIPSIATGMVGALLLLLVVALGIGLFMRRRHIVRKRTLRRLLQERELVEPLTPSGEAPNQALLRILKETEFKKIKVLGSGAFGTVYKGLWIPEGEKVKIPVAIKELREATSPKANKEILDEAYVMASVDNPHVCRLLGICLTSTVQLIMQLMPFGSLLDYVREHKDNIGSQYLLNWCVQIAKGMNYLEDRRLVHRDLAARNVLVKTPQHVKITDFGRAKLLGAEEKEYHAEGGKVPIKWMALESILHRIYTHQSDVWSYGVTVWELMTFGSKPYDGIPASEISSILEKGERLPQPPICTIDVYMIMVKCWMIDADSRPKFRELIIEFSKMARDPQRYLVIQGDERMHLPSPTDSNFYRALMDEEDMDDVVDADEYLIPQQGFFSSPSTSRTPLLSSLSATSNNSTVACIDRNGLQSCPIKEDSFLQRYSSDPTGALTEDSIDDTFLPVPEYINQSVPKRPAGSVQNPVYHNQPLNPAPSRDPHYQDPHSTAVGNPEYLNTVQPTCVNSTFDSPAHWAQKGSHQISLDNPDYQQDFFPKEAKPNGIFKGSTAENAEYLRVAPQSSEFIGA

Row | Compound | IC50 (EGFR Del19/T790M/C797S; [1]) [nM] | IC50 (EGFR Del19/T790M/C797S; Km ATP, read-out: IC50 Del19/T790M/C797S (nM) Km ATP) [nM] | IC50 (EGFR L858R/T790M/C797S; [2]) [nM] | IC50 (EGFR Del19/C797S; [3]) [nM] | IC50 (EGFR L858R/C797S; [4]) [nM] | IC50 (EGFR L858R/C797S; Km ATP, read-out: IC50 L858R/C797S (nM) Km ATP) [nM] | IC50 (EGFR wildtype (WT); IC50 WT (nM), 100 μM ATP) [nM] | IC50 (EGFR wildtype (WT); Km ATP, read-out: IC50 WT (nM) Km ATP) [nM] | IC50 (EGFR Del19/T790M/C797S; [5]) [nM] | IC50 (EGFR L858R/T790M/C797S; [6]) [nM] | IC50 (EGFR Del19/C797S; [7]) [nM] | IC50 (EGFR L858R/C797S; [8]) [nM] | IC50 (EGFR wildtype (WT); [9]) [nM] | IC50 (EGFR Del19/T790M/C797S; [10]) [nM] | IC50 (EGFR L858R/T790M/C797S; [11]) [nM] | IC50 (EGFR Del19/C797S; [12]) [nM] | IC50 (EGFR L858R/C797S; [13]) [nM] | IC50 (EGFR wildtype (WT); [14]) [nM]
1 | O=S(=O)(C1CC1)n1cc(-c2nccc(Nc3cc(N4CC[C@@H](O)C4)c(C#Cc4cnn(CCF)c4)cn3)n2)cn1 [Example 32, (R)-1-(2-((2-(1-(Cyclopropylsulfonyl)-1H-pyrazol-4-yl)pyrimidin-4-yl)amino)-5-((1-(2-fluoroethyl)-1H-pyrazol-4-yl)ethynyl)pyridin-4-yl)pyrrolidin-3-ol] | 1.1 | 1.5 | 4.8 | 11.8 | 96.9 | 12 | > 10000 | 29.4 |  |  |  |  |  |  |  |  |  | 
2 | CC(=O)C1CCN(c2cc(Nc3ccnc(-c4cnn(S(=O)(=O)C5CC5)c4)n3)ncc2C#Cc2cnn(C(F)(F)F)c2)CC1 [Example 334, 1-(1-(2-((2-(1-(Cyclopropylsulfonyl)-1H-pyrazol-4-yl)pyrimidin-4-yl)amino)-5-((1-(trifluoromethyl)-1H-pyrazol-4-yl)ethynyl)pyridin-4-yl)piperidin-4-yl)ethan-1-one] | 8 |  | 14.8 | 1840 | 7530 |  | > 10000 |  | 5.6 | 3.3 | 239 | 136 | 276 |  |  |  |  | 
3 | CN(C)CC1(C)CCN(c2cc(Nc3ccnc(-c4cnn(S(=O)(=O)C5CC5)c4)n3)ncc2C#CC2CCN(C(=O)C(F)(F)F)C2)CC1 (stereo not drawn) [Example 412, 1-(3-((6-((2-(1-(Cyclopropylsulfonyl)-1H-pyrazol-4-yl)pyrimidin-4-yl)amino)-4-(4-((dimethylamino)methyl)-4-methylpiperidin-1-yl)pyridin-3-yl)ethynyl)pyrrolidin-1-yl)-2,2,2-trifluoroethan-1-one] | 0.3 |  | 2.7 | 3.3 | 21.5 |  | > 10000 |  |  |  |  |  |  |  |  |  |  | 
4 | CC1(CO)CCN(c2cc(Nc3ccnc(-c4cnn(S(C)(=O)=O)c4)n3)ncc2C#Cc2cnn(C(F)(F)F)c2)CC1 [Example 268, (4-Methyl-1-(2-((2-(1-(methylsulfonyl)-1H-pyrazol-4-yl)pyrimidin-4-yl)amino)-5-((1-(trifluoromethyl)-1H-pyrazol-4-yl)ethynyl)pyridin-4-yl)piperidin-4-yl)methanol] | 6.2 |  | 2.9 | 59.6 | 116 |  | > 10000 |  |  |  |  |  |  | 2.4 | 1 | 26.6 | 41.8 | 105
5 | CN(C)C[C@H]1CC[C@@H](Nc2cc(Nc3ccnc(-c4cnn(S(=O)(=O)C5CC5)c4)n3)ncc2C#Cc2cnn(CC(F)F)c2)CC1 [Example 311, N^2-(2-(1-(Cyclopropylsulfonyl)-1H-pyrazol-4-yl)pyrimidin-4-yl)-5-((1-(2,2-difluoroethyl)-1H-pyrazol-4-yl)ethynyl)-N^4-((1s,4s)-4-((dimethylamino)methyl)cyclohexyl)pyridine-2,4-diamine] | 0.5 |  | 0.7 | 1.8 | 26 |  | 8550 |  |  |  |  |  |  |  |  | 1.6 | 0.7 | 17.5
6 | C[C@]1(O)CCCN(c2cc(Nc3ccnc(-c4cnn(S(=O)(=O)C5CC5)c4)n3)ncc2C#Cc2cnn(CCF)c2)C1 [Example 447, (S)-1-(2-((2-(1-(Cyclopropylsulfonyl)-1H-pyrazol-4-yl)pyrimidin-4-yl)amino)-5-((1-(2-fluoroethyl)-1H-pyrazol-4-yl)ethynyl)pyridin-4-yl)-3-methylpiperidin-3-ol] | 0.4 |  | 0.5 | 2.1 | 59.8 |  | > 10000 |  | 0.3 | 0.2 | 1.5 | 3.5 | 16.9 |  |  |  |  | 
7 | CN1CCN(Cc2ccc(C#Cc3cnc(Nc4ccnc(-c5cnn(S(=O)(=O)C6CC6)c5)n4)cc3N[C@H]3CC[C@@H](CO)CC3)cc2)CC1 [Example 360, ((1s,4s)-4-((2-((2-(1-(Cyclopropylsulfonyl)-1H-pyrazol-4-yl)pyrimidin-4-yl)amino)-5-((4-((4-methylpiperazin-1-yl)methyl)phenyl)ethynyl)pyridin-4-yl)amino)cyclohexyl)methanol] | 1.1 |  | 0.9 | 2.7 | 7.7 |  | 1130 |  | 0.8 | 0.3 | 2.3 | 2.5 | 3.8 |  |  |  |  | 
8 | CC1(CO)CCN(c2cc(Nc3ccnc(-c4cnn(S(=O)(=O)C5CC5)c4)n3)ncc2C#Cc2ccc(CN3CCOCC3)s2)CC1 [Example 191, (1-(2-((2-(1-(Cyclopropylsulfonyl)-1H-pyrazol-4-yl)pyrimidin-4-yl)amino)-5-((5-(morpholinomethyl)thiophen-2-yl)ethynyl)pyridin-4-yl)-4-methylpiperidin-4-yl)methanol] | 7 |  | 9.8 | 4.3 | 21.7 |  | 3580 |  |  |  |  |  |  | 3 | 1.5 | 2.2 | 3.2 | 8.1
9 | O=S(=O)(C1CC1)n1cc(-c2nccc(Nc3cc(N[C@H]4CC[C@@H](O)CC4)c(C#CC4(O)CCOCC4)cn3)n2)cn1 [Example 196, 4-((6-((2-(1-(Cyclopropylsulfonyl)-1H-pyrazol-4-yl)pyrimidin-4-yl)amino)-4-(((1 s, 4s)-4-hydroxycyclohexyl)amino)pyridin-3-yl)ethynyl)tetrahydro-2H-pyran-4-ol] | 0.6 |  | 1.1 | 9.8 | 50.6 |  | > 10000 |  |  |  |  |  |  | 0.7 | 0.3 | 6 | 6.8 | 68
10 | Cn1cc(C#Cc2cnc(Nc3ccnc(-c4cnn(S(=O)(=O)C5CC5)c4)n3)cc2N2CC[C@@H](O)C2)cn1 [Example 31, (R)-1-(2-((2-(1-(Cyclopropylsulfonyl)-1H-pyrazol-4-yl)pyrimidin-4-yl)amino)-5-((1-methyl-1H-pyrazol-4-yl)ethynyl)pyridin-4-yl)pyrrolidin-3-ol] | 0.7 |  | 1.4 | 6.5 | 52.3 |  | > 10000 |  |  |  |  |  |  |  |  |  |  | 
11 | CC1(CO)CCN(c2cc(Nc3ccnc(-c4cnn(S(=O)(=O)C5CC5)c4)n3)ncc2C#CC2(O)CCOCC2)CC1 [Example 195, 4-((6-((2-(1-(cyclopropylsulfonyl)-1H-pyrazol-4-yl)pyrimidin-4-yl)amino)-4-(4-(hydroxymethyl)-4-methylpiperidin-1-yl)pyridin-3-yl)ethynyl)tetrahydro-2H-pyran-4-ol] | 0.4 |  | 0.4 | 2.7 | 14.8 |  | 8540 |  |  |  |  |  |  | 0.3 | 0.1 | 2.4 | 2.3 | 19.6
